Results as given in patent publication US8110655B2, “Method to promote hair growth and/or delay or treat hair loss by administering a TGF-β antagonist or inhibitor” (Auxagen, Inc., priority 2006, dated 2012).
Where no end group is shown, it is not given here. PEG = not defined here

What was measured:
[1] = system: partial-thickness pig skin burn wounds; assay: Partial-thickness porcine burn wound outcomes; assay type: in vivo
Protocol: Animals were sedated with Talazine® ([…] Zolazepam, Fort Dodge Lab, Fort Dodge, Iowa) 5 mg/kg IM. The pigs were then intubated endotracheally and maintained under a surgical plane of anesthesia with isoflurane 0.5-2.5% in room air. The flank and back hair was clipped with hair clippers and the skin was scrubbed with a povidine iodine solution. Standardized partial thickness burns were created on the animals' backs and flanks by applying a 2.5 cm by 2.5 cm, 150 gram aluminum bar preheated in hot water to 80° C. The heated bar was wiped dry just prior to application to prevent water droplets from creating a steam burn on the skin. The bar was then placed at a vertical position perpendicular to the skin's surface and applied for a period of 20 seconds with all pressure supplied by gravity. […] In order to simulate burn blister debridement and enhance the absorption of the topical agents, the necrotic epidermis was gently removed by rubbing the burn with dry gauze. Removal of the necrotic epidermis results in delayed reepithelialization, and increased scar formation^17. Twenty burns were inflicted on each of 2 pigs (evenly distributed between both side of the pigs), for a total of 40 burns. The agent used in the studies is PEG-β1^25 (SEQ ID NO: 8) This particular peptide was chosen after screening seven pentacosapeptides whose amino acids overlap and cover most of the human TGF-β1 molecule, the monomer of which has 112 amino acid residues. […] Furthermore, the chosen peptide was also shown to block the cellular responses to TGF-β1 such as DNA synthesis and transcriptional activation of PAI-1. […] TGF-β peptantagonist PEG-β1^25 in PBS was mixed with Sterile IntraSite gel from Smith and Nephew Medical, Ltd. (UK) at a ratio of 1:3 (v/v). The pigs were randomized to treatment with topical PEG-β1^25 peptantagonist (SEQ ID NO: 8) or its vehicle (carboxy methylcellulose, IntraSite Gel, Smith and Nephew, Largo, Fla.) immediately after injury and at days 3, 5, 7, 10, 14, 18, 21, and 25. A thin layer of the topical treatment was applied with a sterile metal spatula. Group randomization order was determined by drawing unlabeled forms from an opaque container. After applying the topical therapy, the burns were covered with dry non-adherent gauze ([…] Company, Mansfield, Mass.). The burned areas were then covered with a gauze bandage roll (Conform®), Kendall Healthcare Products Company, Mansfield, Mass.) and an adhesive elastic bandage (Elastoplast®, Beiersdorf-Jobst, Inc., Rutherford College, N.C.). The adhesive dressing was secured to the skin at a distance from the burns with skin staples. Animals were observed frequently for signs of pain or discomfort and treated with IM buprenorphine 0.01 mg/kg as needed. Dressing changes were performed with each application of the topical agents. At each dressing change all gauze dressings were removed and the wounds were observed and the study agent was reapplied. All burns were then re-covered with non-adherent gauze and elastic wrap as previously described. Full thickness 4-mm punch biopsies (Miltex Instrument Company Inc., Lake Success, N.Y.) were taken after 7, 10, and 14 days for blinded histopathological evaluation by a board-certified dermatopathologist masked to treatment assignment. The entire wound was excised at 28 days and submitted for histological evaluation. Digital photos were taken prior to biopsy to determine the presence of wound contraction defined as an hourglass like shape. Histopathological studies were done on formalin-fixed, alcohol-dehydrated, xylene-cleared, paraffin-embedded, hematoxylin and eosin stained 5 μm sections using conventional microscopy. The primary outcome was the percent of wounds healing with wound contraction. Secondary outcomes were percent reepithelialization, percent wound infection, and the percent of wounds with scars extending through the entire thickness of the dermis. […]

[2] = system: TGF-β receptors in mink lung epithelial cells; assay: Inhibition of labeled TGF-β binding to TGF-β receptors in mink lung epithelial cells; details: screen of seven pentacosapeptides
Description: (§1) By “treating or preventing alopecia” is meant the ability to cure, reduce or prevent one or more clinical symptoms of alopecia, including, but not limited to, hair loss, cornification, scaling, uneven thickness, persistent itch, inflammation, and rapid epithelial cell turnover in the skin. Treating alopecia also includes the promotion of hair growth at the site of the hair loss. The methods of the invention also encompass promotion or stimulation of hair growth in general (e.g. to thicken naturally thin hair). […] It was also discovered that at least four consecutive amino acids comprising W(or R)XXD (wherein X is any amino acid) motif in the sequences, determines their potencies and that they block TGF-β-induced growth inhibition and TGF-β-induced expression of PAI-1 in mink lung epithelial cells and other cell types (U.S. Pat. No. 6,500,920 issued Dec. 31, 2002). As was previously disclosed by the inventors, such peptides are effective in inhibiting, ameliorating or reversing the effects of TGF-β in biological systems including but not limited to reducing scarring wounds, to prevent lung injury in adult respiratory distress syndrome (ARDS), and injuries of other tissues caused by pharmacological agents (e.g. bladder injury caused by cyclophosphamide). […]

[3] = system: mink lung epithelial cells; assay: Block of TGF-β-induced growth inhibition / DNA synthesis response; assay type: cell-based
Description: as §1

[4] = system: PAI-1; assay: Block of TGF-β-induced expression / transcriptional activation of PAI-1; assay type: cell-based, mink
Description: as §1

[5] = day 28, of 20 burns, full thickness scars

“PEG-β1^25: β1^25 (SEQ ID NO: 8) pegylated at the N-terminal alpha-amino group and at the epsilon-amino group ({PEG}-ANFSLGPSPYIWSLDTQYSK(PEG)VLALY; reading uncertain; listed as Homo Sapiens)” was tested, and the “Percent wound reepithelialization, day 7” value ([1]; day 7, 20 burns) was 14.2 (28.8) %, the “Percent wound reepithelialization, day 10” value ([1]; day 10, 20 burns) was 46.3 (44.4) % and the “Percent wound reepithelialization, day 14” value ([1]; day 14, 20 burns) was 91.9 (25.7) %. For the same substance, the “% wounds completed reepithelialized, day 14” value ([1]; day 14, of 20 burns) was 90%, the “No. wounds completed reepithelialized, day 14” value ([1]; day 14, of 20 burns) was 18 and the “% contracted wounds, day 28” value ([1]; day 28, of 20 burns) was 35%. For the same substance, the “No. contracted wounds, day 28” value ([1]; day 28, of 20 burns) was 7, the “% deep scars, day 28” value [1, 5] was 10% and the “No. deep scars, day 28” value [1, 5] was 2. For the same substance, the “hair growth in treated wounds” value ([1]; partial-thickness burn, topical gel) was “exhibited hair growth”, the “Mean Difference (95% CI) in percent wound reepithelialization, day 7” value ([1]; versus control vehicle, day 7) was 7.9 (−8.2-24.1) and the “Mean Difference (95% CI) in percent wound reepithelialization, day 10” value ([1]; versus control vehicle, day 10) was 20.9 (−6.1-48.0). The “Mean Difference (95% CI) in percent wound reepithelialization, day 14” value ([1]; versus control vehicle, day 14) was 19.5 (−2.5-41.5), the “inhibition of binding of labeled TGF-β1 to its receptor” value [2] was “completely inhibited” and the “block of cellular response to TGF-β1: DNA synthesis” value [3] was “block”. The “block of cellular response to TGF-β1: transcriptional activation of PAI-1” value [4] was “block”.
